Data on one compound can be found in patent US8889638B2, “Stimulus-triggered prodrugs” (The Regents of the University of California, priority 2010, dated 2014).

Data set [1] can be described thus: Acid stability in 0.1 M HCl (absorption spectra). The class given is physicochemical. The note with it: 0.1 M HCl over 24 h. Here is the method: To examine the stability of compound 8 towards acid hydrolysis, the absorption spectra of a 0.05 mM solution of 8 in a 0.1 M aqueous solution of HCl was collected. Spectra were collected at room temperature every hour for a 24 h time period. No change in the spectra was observed (FIG. 11).

The target in data set [2] is T1, MMP-9 (catalytic domain, human, recombinant) (Homo sapiens, UniProt P14780).
T1 construct: MMP-9 (catalytic domain, human, recombinant); purchased BIOMOL International
T1 sequence (P14780 107-444 limits assumed): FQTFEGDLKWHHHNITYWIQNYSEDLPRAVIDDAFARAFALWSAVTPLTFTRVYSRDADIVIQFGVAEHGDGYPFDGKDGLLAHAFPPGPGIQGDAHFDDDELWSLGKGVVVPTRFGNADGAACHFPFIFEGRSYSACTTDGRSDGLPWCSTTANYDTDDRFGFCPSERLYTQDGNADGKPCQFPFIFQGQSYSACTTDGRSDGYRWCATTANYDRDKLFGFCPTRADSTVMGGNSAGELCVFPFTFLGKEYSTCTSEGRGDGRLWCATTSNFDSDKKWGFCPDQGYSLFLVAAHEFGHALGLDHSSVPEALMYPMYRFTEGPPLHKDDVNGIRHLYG
The data set can be described thus: MMP-9 fluorescence-based inhibition assay with and without β-glucosidase. The class given is biochemical. The procedure:
MMP-9 (catalytic domain, human, recombinant), MMP-8 (catalytic domain, human, recombinant), and the assay kit were purchased from BIOMOL International. The assays were carried out according to the procedure provided with the kit. MMP activity was measured in 96-well plates using a Bio-Tek Flx 800 fluorescent plate reader. The ZBGs and their protected analogs were dissolved in DMSO and diluted in HEPES buffer (50 mM, pH 7.5) to a concentration of 10 mM for 1-2, 40 mM for 3-4, and 1.25 mM for 5-6. Each well contained 20 μL, of MMP-9 (0.45 U/mL), inhibitor (10 μL, of 1-6), 5 μL, of β-glucosidase (1 U/μL) when used, and buffer for a total volume of 99 μL. These were incubated for 1 h at 37° C. […] The reaction was initiated by the addition of 1 μL (400 μM) of the fluorescent substrate (Mca-Pro-Leu-Gly-Leu-Dpa-Ala-Arg-NH2 where Mca=(7-methoxycoumarin-4-yl)-acetyl and Dpa=N-3-(2,4-dinitrophenyl)-L-α-β-diaminopropionyl)) and kinetic activity was measured every minute for 30 min with excitation and emission wavelengths at 335 nm and 405 nm, respectively. Enzyme activity with inhibitor was calculated with respect to the control experiment (no inhibitor present). Measurements were performed in duplicate in two independent experiments.
For Cmpds 7 and 8, 1 mL sample in HEPES buffer at a concentration of 1 mM was incubated at 37° C. with 250 U of β-glucosidase (1 U/μL) for 4 h giving a final concentration of 0.8 mM of the inhibitor. After 4 h, a 200 μL aliquot was collected and filtered through a microcentrifuge filter. UV-Vis absorption spectroscopy was to verify that the concentration of 1,2-HOPO-2 was 0.71±0.2 mM in each of the samples using the extinction coefficient for 1,2-HOPO-2 (7) calculated at 346 nm (4,279.3±372 M-1 cm-1). Each well was made up with 20 μL of MMP-9 (0.45 U/mL), inhibitor (2 μL, for 7 and 8), and buffer for a total volume of 99 μL. These were incubated for 30 min at 37° C. For MMP-8 inhibition assays, each of the samples was diluted to 1 μM in HEPES buffer and 15 μL of each were added to 20 μL of MMP-8 (0.092 U/mL) and buffer for a total of 99 μL. The reaction was initiated by the addition of 1 μL (400 μM) of the fluorescent substrate and kinetic activity was measured every minute for 30 min with excitation and emission wavelengths at 335 nm and 405 nm, respectively. Enzyme activity with inhibitor was calculated with respect to the control experiment (no inhibitor present). A control sample was also performed, in which an aliquot of 250 U of β-glucosidase (1 U/μL) with 1 mL of HEPES buffer was incubated for 4 h at 37° C., filtered through a microcentrifuge filter, and evaluated in the MMP assay to confirm that no inhibition is observed with β-glucosidase. Measurements were performed in duplicate in two independent experiments. […]

Take `O=C(NCc1ccc(-c2ccccc2)cc1)c1cccc(=O)n1O[C@@H]1O[C@H](CO)[C@@H](O)[C@H](O)[C@H]1O` [Compound 8, N-(Biphenyl-4-ylmethyl)-6-oxo-1-(β-D-glucopyranosyloxy)-1,6-dihydropyridine-2-carboxamide]: the “cleavage under acidic conditions” value in data set [1] is listed as “not cleaved”. For the same compound, the inhibition at 16 µM in data set [2] (16 μM, read-out: MMP-9 activity inhibited upon activation with β-glucosidase) was determined as 73%. Besides, the “inhibition of MMP-9 in the absence of β-glucosidase” value in data set [2] (1 mM for 2, 4 mM for 4, 125 μM for 6, 16 μM for 8) was “very little inhibition”.
